Laboratory results reported in patent publication US10793529B2, “Substituted pyridazines and 1,2,4-triazines as prostacyclin receptor modulators” (Arena Pharmaceuticals, Inc., priority 2008, dated 2020).

What was measured:
human PRP = experiment: Human platelet aggregation inhibition test; assay type: cell-based; conditions: ADP-induced aggregation (1×10^−5 M ADP) in human platelet-rich plasma
Experimental: Blood collected from healthy human volunteers in aqueous trisodium citrate solution was centrifuged at 150 g for 15 min and the upper layer was recovered to obtain platelet-rich plasma (PRP). The residual blood was centrifuged at 3000 g for 10 min and the supernatant was collected as platelet-poor plasma (PPP). Platelet concentration in the PRP was determined using the Z series Beckman Coulter particle counter (Beckman, Fullerton, Calif.) and adjusted to 250,000 platelets/μL using PPP. 480 μL of PRP was pre-incubated at 37° C. and stirred at 1200 rpm with 10 μL aqueous test compound solution for 1 min prior to induction of aggregation by the addition of 10 μL of aqueous adenosine diphosphate (ADP) solution to adjust the final ADP concentration in the PRP to 1×10^−5 M. The maximal amplitude of aggregation response within 3 min was determined and measured in triplicate using the Chronolog model 490 aggregometer (Chrono-log Corp., Havertown, Pa.). Percent inhibition of aggregation was calculated from the maximum decrease in optical density of the control (addition of water in place of the test compound solution) sample and of the samples containing test compound. The test compound was added to adjust the final concentration to the range 10^−9 to 10^−4 M, and IC50 values were determined by inhibition percentage of aggregation at each concentration.

[1] = target: human prostacyclin (PGI2) receptor (Homo sapiens (Human), UniProt P43119); experiment: HTRF assay for direct cAMP measurement; assay type: cell-based; conditions: recombinant CHO-K1 cells stably transfected with human prostacyclin receptor; cAMP increase
Chain of human prostacyclin (PGI2) receptor (P43119 whole entry): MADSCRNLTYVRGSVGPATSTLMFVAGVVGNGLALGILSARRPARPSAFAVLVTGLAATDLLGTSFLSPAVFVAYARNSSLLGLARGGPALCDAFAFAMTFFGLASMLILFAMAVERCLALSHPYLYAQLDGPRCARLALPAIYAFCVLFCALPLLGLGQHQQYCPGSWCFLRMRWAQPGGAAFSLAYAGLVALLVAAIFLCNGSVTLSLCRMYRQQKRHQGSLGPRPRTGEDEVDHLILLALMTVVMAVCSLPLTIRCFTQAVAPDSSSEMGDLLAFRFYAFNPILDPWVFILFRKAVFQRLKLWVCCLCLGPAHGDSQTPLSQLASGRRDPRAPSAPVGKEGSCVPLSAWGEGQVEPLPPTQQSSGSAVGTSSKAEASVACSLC
Excerpt: Compounds were screened for agonists of the human prostacyclin (PGI2) receptor using the HTRF® assay for direct cAMP measurement (Gabriel et al., ASSAY and Drug Development Technologies, 1:291-303, 2003) and recombinant CHO-K1 cells stably transfected with human prostacyclin receptor. CHO-K1 cells were obtained from ATCC® (Manassas, Va.; Catalog # CCL-61). An agonist of the prostacyclin receptor was detected in HTRF® assay for direct cAMP measurement as a compound which increased cAMP concentration. HTRF® assay also was used to determine EC50 values for prostacyclin receptor agonists.
The HTRF® assay kit was purchased from Cisbio-US, Inc. (Bedford, Mass.; Catalog #62AM4PEC). The HTRF® assay supported by the kit is a competitive immunoassay between endogenous cAMP produced by the CHO-K1 cells and tracer cAMP labeled with the dye d2. The tracer binding is visualized by a monoclonal anti-cAMP antibody labeled with Cryptate. The specific signal (i.e., fluorescence resonance energy transfer, FRET) is inversely proportional to the concentration of unlabeled cAMP in the standard or sample.
The fluorescence ratio (665 nm/620 nm) of the standards (0.17 to 712 nM cAMP) included in the assay was calculated and used to generate a cAMP standard curve according to the kit manufacturer's instructions. The fluorescence ratio of the samples (test compound or compound buffer) was calculated and used to deduce respective cAMP concentrations by reference to the cAMP standard curve.
The HTRF® assay was carried out using a two-step protocol essentially according to the kit manufacturer's instructions, in 20 μL total volume per well in 384-well plate format (ProxiPlates; PerkinElmer, Fremont, Calif.; catalog #6008280). To each of the experimental wells was transferred 3000 recombinant CHO-K1 cells in 5 μL assay buffer (phosphate buffered saline containing calcium chloride and magnesium chloride (Invitrogen, Carlsbad, Calif.; catalog #14040) supplemented with IBMX ([…]) and rolipram ([…]) (phosphodiesterase inhibitors; Sigma-Aldrich, St. Louis, Mo.; catalog #15879 and catalog # R6520, respectively) and 0.1% bovine serum albumin (BSA) fraction V (Sigma-Aldrich; catalog # A3059)), followed by test compound in 5 μL assay buffer or 5 μL assay buffer. The plate was then incubated at room temperature for 1 h. To each well was then added 5 μL cAMP-d2 conjugate in lysis buffer and 5 μL Cryptate conjugate in lysis buffer according to the kit manufacturer's instructions. The plate was then further incubated at room temperature for 1 h, after which the assay plate was read.
The HTRF® readout was accomplished using a PHERAstar (BMG LABTECH Inc., Durham, N.C.) or EnVision™ (PerkinElmer, Fremont Calif.) microplate reader.

[2] = tested on: MCT-induced pulmonary arterial hypertension in rat; experiment: Rat monocrotaline (MCT) model of pulmonary arterial hypertension; assay type: in vivo; conditions: 30 mg/kg oral gavage twice a day for 21 days, male Wistar rats, 60 mg/kg MCT s.c.; FIG. 1
Experimental: Male Wistar rats (100-150 g at start of study) (Charles River Laboratories, Wilmington, Mass.) were housed two per cage and maintained in a humidity-(40-60%) and temperature-(68-72° F.) controlled facility on a 12 hr: 12 hr light/dark cycle (lights on at 6:30 am) with free access to food (Harlan Teklad, Orange Calif., Rodent Diet 8604) and water. Rats were allowed one week of habituation to the animal facility before testing.
The rat monocrotaline (MCT) model is a standard and well-accepted model of pulmonary arterial hypertension. MCT induces acute pulmonary endothelial damage associated with pulmonary vascular inflammation. […]
Rats were randomly given a single subcutaneous injection of either 60 mg/kg MCT (Sigma, St. Louis, Mo.) or 0.9% saline (sham) and assigned to receive oral administration of 20% hydroxypropyl beta-cyclodextrin (vehicle) or test compound (30 mg/kg; FIG. 1). […] Heart chamber weights were measured on Day 22. […] The ratio of right ventricular (RV) weight to left ventricle plus septum (LV+S) weight (this ratio is indicated as “RV/(LV+S)” in FIG. 1) was calculated as an index of the hypertrophic response to the induced pulmonary arterial hypertension and, as such, as an index of a test compound's therapeutic efficacy for pulmonary arterial hypertension.

Structure (SMILES)	IC50 (human PRP) [nM]	EC50 [1] [nM]	right ventricle hypertrophic response, RV/(LV+S) [2]
O=C(O)COC[C@H]1CC[C@@H](Cn2nc(-c3ccccc3)c(-c3cccc(F)c3F)cc2=O)CC1 [Compound 8, 2-(((1s,4s)-4-((4-(2,3-difluorophenyl)-6-oxo-3-phenylpyridazin-1(6H)-yl)methyl)cyclohexyl)methoxy)acetic acid]	67		
O=C(O)COC[C@H]1CC[C@@H](Cn2nc(-c3ccccc3)c(-c3cccc(Cl)c3F)cc2=O)CC1 [Compound 31, 2-(((1s,4s,)-4-((4-(3-chloro-2-fluorophenyl)-6-oxo-3-phenylpyridazin-1(6H)-yl)methyl)cyclohexyl)methoxy)acetic acid]	21	31	
Cc1ccc(-c2nc(=O)n(C[C@H]3CC[C@@H](COCC(=O)O)CC3)nc2-c2ccc(C)cc2)cc1 [Compound 43, 2-(((1s,4s)-4-((3-oxo-5,6-di-p-tolyl-1,2,4-triazin-2(3H)-yl)methyl)cyclohexyl)methoxy)acetic acid]	130	36	
O=C(O)COC[C@H]1CC[C@@H](Cn2nc(-c3ccccc3)c(-c3cccc(Cl)c3)nc2=O)CC1 [Compound 67, 2-(((1s,4s)-4-((5-(3-chlorophenyl)-3-oxo-6-phenyl-1,2,4-triazin-2(3H)-yl)methyl)cyclohexyl)methoxy)acetic acid]		73	
Cc1ccc(-c2nn(C[C@H]3CC[C@@H](COCC(=O)O)CC3)c(=O)nc2-c2ccccc2)cc1 [Compound 68, 2-(((1s,4s)-4-((3-oxo-5-phenyl-6-p-tolyl-1,2,4-triazin-2(3H)-yl)methyl)cyclohexyl)methoxy)acetic acid]			inhibited the hypertrophic response
COc1ccc(-c2nn(C[C@H]3CC[C@@H](COCC(=O)O)CC3)c(=O)nc2-c2ccccc2)cc1 [Compound 69, 2-(((1s,4s)-4-((6-(4-methoxyphenyl)-3-oxo-5-phenyl-1,2,4-triazin-2(3H)-yl)methyl)cyclohexyl)methoxy)acetic acid]	22	8	
